From ChEMBL document CHEMBL3351519, “Synthetic studies on mitotic kinesin Eg5 inhibitors: synthesis and structure-activity relationships of novel 2,4,5-substituted-1,3,4-thiadiazoline derivatives” (Bioorg Med Chem Lett, 2014) come the findings set out here.

Structures are written as SMILES.

One data set concerns HCT-116. Put plainly: Induction of mitotic accumulation in human HCT116 cells Hoechst 33342 staining based by fluorescence microscopy. Type of data set: functional.
A short description of data set [1]: Growth inhibition of human HCT116 cells. The conditions noted are these: HCT-116. The class given is functional.
Data set [2] relates to A2780. Description: Antitumor activity against human A2780 cells xenografted in SCID mouse assessed as tumor volume ratio at 100 mg/kg, po bid for 5 days relative to untreated control. The class given is functional. A general note: A xenograft is tissue or cells of one species grown in another, often human tumour cells in immunodeficient mice.
In data set [3] the test system is Mus musculus. Put plainly: Toxicity in human A2780 cells xenografted SCID mouse assessed as mortality at 100 mg/kg, po bid for 5 days. The class given is organism-based. More on the design: dose 100 mg/kg, route oral. The following applies: in vivo, 120 h.
The subject of data set [4] is Mus musculus. Description: Toxicity in human A2780 cells xenografted SCID mouse assessed as induction of body weight loss at 100 mg/kg, po bid for 5 days. Type of data set: organism-based. More on the design: dose 100 mg/kg, route oral. The following applies: in vivo, 120 h.
Data set [5] concerns the target T1, Kinesin-like protein KIF11 (Homo sapiens, UniProt P52732).
T1 sequence (P52732 whole entry): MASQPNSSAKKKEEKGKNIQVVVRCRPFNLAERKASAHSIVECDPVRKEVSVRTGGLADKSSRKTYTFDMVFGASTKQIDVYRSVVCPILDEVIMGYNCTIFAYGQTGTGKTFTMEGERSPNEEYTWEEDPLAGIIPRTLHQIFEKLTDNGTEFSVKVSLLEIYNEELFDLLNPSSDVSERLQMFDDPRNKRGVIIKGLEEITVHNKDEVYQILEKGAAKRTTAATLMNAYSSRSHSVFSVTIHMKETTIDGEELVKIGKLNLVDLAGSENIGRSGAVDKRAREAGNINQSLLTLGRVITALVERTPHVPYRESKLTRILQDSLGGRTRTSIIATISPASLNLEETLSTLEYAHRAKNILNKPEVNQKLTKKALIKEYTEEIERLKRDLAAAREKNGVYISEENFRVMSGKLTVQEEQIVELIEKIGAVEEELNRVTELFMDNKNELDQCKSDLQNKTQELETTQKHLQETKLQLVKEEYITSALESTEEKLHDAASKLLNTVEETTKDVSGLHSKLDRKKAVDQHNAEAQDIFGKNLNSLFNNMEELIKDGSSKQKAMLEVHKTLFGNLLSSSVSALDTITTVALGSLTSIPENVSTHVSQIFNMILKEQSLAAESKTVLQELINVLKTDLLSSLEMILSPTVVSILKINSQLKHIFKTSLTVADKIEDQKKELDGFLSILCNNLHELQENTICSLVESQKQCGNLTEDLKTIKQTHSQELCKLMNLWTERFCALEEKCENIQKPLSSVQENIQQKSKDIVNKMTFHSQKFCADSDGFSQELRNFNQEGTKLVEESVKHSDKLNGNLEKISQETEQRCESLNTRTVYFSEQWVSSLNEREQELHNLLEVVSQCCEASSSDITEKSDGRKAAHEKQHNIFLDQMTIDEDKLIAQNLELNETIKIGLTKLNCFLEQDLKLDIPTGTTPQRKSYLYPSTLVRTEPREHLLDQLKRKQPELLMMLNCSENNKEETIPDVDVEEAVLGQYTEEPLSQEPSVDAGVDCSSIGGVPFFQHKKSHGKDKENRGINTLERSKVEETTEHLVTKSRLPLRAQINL
Put plainly: Inhibition of Eg5 (unknown origin).

The nature of data set [6]: Intrinsic clearance in mouse liver microsomes. The conditions noted are these: read-out: CLH (converted). Type of data set: ADME.
Data set [7] deals with A2780. Put plainly: Antitumor activity against human A2780 cells xenografted in SCID mouse assessed as tumor volume ratio at 0.625 mg/kg, po bid for 5 days relative to untreated control. The class given is functional.
The subject of data set [8] is A2780. Put plainly: Antitumor activity against human A2780 cells xenografted in SCID mouse assessed as tumor volume ratio at 5 mg/kg, po bid for 5 days relative to untreated control. Type of data set: functional.
Data set [9] concerns Mus musculus. Description: Toxicity in human A2780 cells xenografted SCID mouse assessed as mortality at 0.625 mg/kg, po bid for 5 days. The conditions noted are these: in vivo, 120 h. Type of data set: organism-based. More on the design: dose 0.625 mg/kg, route oral.
The test system of data set [10] is Mus musculus. Put plainly: Toxicity in human A2780 cells xenografted SCID mouse assessed as induction of body weight loss at 0.625 mg/kg, po bid for 5 days. More on the design: dose 0.625 mg/kg, route oral. The class given is organism-based. The following applies: in vivo, 120 h.
Data set [11] deals with Mus musculus. Description: Toxicity in human A2780 cells xenografted SCID mouse assessed as mortality at 5 mg/kg, po bid for 5 days. Type of data set: organism-based. Also noted: dose 5 mg/kg, route oral. The conditions noted are these: in vivo, 120 h.
Data set [12] has as its system Mus musculus. Description: Toxicity in human A2780 cells xenografted SCID mouse assessed as induction of body weight loss at 5 mg/kg, po bid for 5 days. Type of data set: organism-based. Also noted: dose 5 mg/kg, route oral. The conditions noted are these: in vivo, 120 h.
Data set [13] in a line: Oral absorption in mouse. The following applies: in vivo. Type of data set: ADME, organism-based.
For data set [14], the system named is A2780. Put plainly: Antitumor activity against human A2780 cells xenografted in SCID mouse assessed as tumor volume ratio at 2.5 mg/kg, po bid for 5 days relative to untreated control. The class given is functional.
In data set [15] the test system is A2780. Put plainly: Antitumor activity against human A2780 cells xenografted in SCID mouse assessed as tumor volume ratio at 10 mg/kg, po bid for 5 days relative to untreated control. Type of data set: functional.
The subject of data set [16] is Mus musculus. Put plainly: Toxicity in human A2780 cells xenografted SCID mouse assessed as mortality at 2.5 mg/kg, po bid for 5 days. Type of data set: organism-based. The conditions noted are these: in vivo, 120 h. More on the design: dose 2.5 mg/kg, route oral.
In data set [17] the test system is Mus musculus. Description: Toxicity in human A2780 cells xenografted SCID mouse assessed as induction of body weight loss at 2.5 mg/kg, po bid for 5 days. The class given is organism-based. The following applies: in vivo, 120 h. Also noted: dose 2.5 mg/kg, route oral.
The test system of data set [18] is Mus musculus. Put plainly: Toxicity in human A2780 cells xenografted SCID mouse assessed as mortality at 10 mg/kg, po bid for 5 days. The class given is organism-based. More on the design: dose 10 mg/kg, route oral. The following applies: in vivo, 120 h.
For data set [19], the system named is Mus musculus. Put plainly: Toxicity in human A2780 cells xenografted SCID mouse assessed as induction of body weight loss at 10 mg/kg, po bid for 5 days. The class given is organism-based. More on the design: dose 10 mg/kg, route oral. The conditions noted are these: in vivo, 120 h.
The nature of data set [20]: Therapeutic index, ratio of MTD in human A2780 cells xenografted SCID mouse to ED50 for human A2780 cells xenografted in SCID mouse. Type of data set: cell-based. The conditions noted are these: in vivo, read-out: TI.
Data set [21] deals with A2780. Description: Antitumor activity against human A2780 cells xenografted in SCID mouse assessed as reduction in tumor volume dosed orally twice daily for 5 days relative to untreated control. The class given is functional, organism-based.

By GI50 is commonly meant the concentration that inhibits growth by half. Read a high GI50 as lower sensitivity of the cells. `CC(=O)NC1=NN(C(C)=O)C(C)(c2ccccc2)S1` (stereo not given) came in with an MI20 in the data set on HCT-116 of 1100 nmol/L. This compound also yielded a GI50 in data set [1] of 1000 nM. Also, the T/C with A2780 [2] came out at 0.18. The Activity entry in the data set on Mus musculus [3] and in the data set on Mus musculus [4] was “Non-toxic” in each case.
For `CC(=O)N1N=C(N)SC1(C)c1ccccc1` (stereo not given), in the data set on HCT-116, the MI20 is >10000 nmol/L.
Same read-out and setting: under `CC(C)(C)C(=O)NC1=NN(C(=O)C(C)(C)C)C(CC#N)(c2ccccc2)S1` (stereo not given) stands >10000 nmol/L; under `CC(C)(C)C(=O)NC1=NN(C(=O)C(C)(C)C)C(CS(C)(=O)=O)(c2ccccc2)S1` (stereo not given), >10000 nmol/L.
Regarding `COCC1(c2ccccc2)SC(NC(=O)C(C)(C)C)=NN1C(=O)C(C)(C)C` (stereo not given), the MI20 with HCT-116 was 430 nmol/L. The compound further had a GI50 in data set [1] of 560 nM.
`CC(=O)NCC1(c2ccccc2)SC(NC(=O)C(C)(C)C)=NN1C(=O)C(C)(C)C` (stereo not given) registered an MI20 in the data set on HCT-116 of 2200 nmol/L.
In general, IC50 refers to the midpoint of a concentration-inhibition curve. A high value points to a need for much substance. As for `CC(C)(C)C(=O)NC1=NN(C(=O)C(C)(C)C)C(CNS(C)(=O)=O)(c2ccccc2)S1` (stereo not given), the MI20 with HCT-116 is 16 nmol/L. Moreover, in data set [1], growth was halved (GI50) at 17 nM. 44 nM corresponded to half-maximal inhibition in data set [5] (IC50).
Compound `CC(C)(C)C(=O)NC1=NN(C(=O)C(C)(C)C)C(CCNS(C)(=O)=O)(c2ccccc2)S1` (stereo not given) gave an MI20 in the data set with HCT-116 of 71 nmol/L. In addition, in data set [1], growth was halved (GI50) at 63 nM. For the same compound, in data set [5], inhibition was half-maximal at 120 nM (IC50). The CLint scaled in data set [6] is 32.5 mL/min/kg.
`CCC(=O)NC1=NN(C(=O)CC)C(C)(c2ccccc2)S1` (stereo not given): the MI20 in the data set with HCT-116 is recorded as 1700 nmol/L.
In turn, `CC(C)C(=O)NC1=NN(C(=O)C(C)C)C(C)(c2ccccc2)S1` (stereo not given) yielded an MI20 in the data set on HCT-116 of 460 nmol/L. This compound also came in with a GI50 in [1] of 550 nM.
`CC(C)CC(=O)NC1=NN(C(=O)CC(C)C)C(C)(c2ccccc2)S1` (stereo not given) had an MI20 with HCT-116 of 170 nmol/L. For the same compound, the GI50 in [1] is 190 nM. In addition, the midpoint of inhibition in data set [5], the IC50, lay at 520 nM.
As to `CC1(c2ccccc2)SC(NC(=O)c2ccccc2)=NN1C(=O)c1ccccc1` (stereo not given), the MI20 in the data set with HCT-116 is listed as >10000 nmol/L.
In turn, `CCC(=O)N1N=C(NC(=O)C(C)(C)C)SC1(CCNS(C)(=O)=O)c1ccccc1` (racemic) yielded an MI20 in the data set with HCT-116 of 114 nmol/L. Further, the IC50 in [5] came to 111 nM. Moreover, in data set [6], the CLint scaled is 14.8 mL/min/kg.
Taken in the same sequence, the figures for `CC(C)C(=O)N1N=C(NC(=O)C(C)(C)C)SC1(CCNS(C)(=O)=O)c1ccccc1` (racemic) were 114 nmol/L, 110 nM and 14.8 mL/min/kg.
Regarding `CC(C)C(=O)N1N=C(NC(=O)C(C)(C)C)SC1(CCNS(C)(=O)=O)c1ccccc1` (single isomer, unassigned; (+)), in the data set on HCT-116, the MI20 is given as >10000 nmol/L.
`CCC(=O)N1N=C(NC(=O)C(C)(C)C)SC1(CCNS(C)(=O)=O)c1ccccc1` (single isomer, unassigned; (-)) [listing 1 of 2 here] displayed an MI20 in the data set on HCT-116 of 55 nmol/L. For the same compound, the GI50 in data set [1] came to 560 nM. This compound also showed an IC50 in [5] of 64 nM. The T/C with A2780 [7] is 0.5; with A2780 [8], 0.08. Besides, the Activity entry in the data set with Mus musculus [9], in the data set with Mus musculus [10], in the data set on Mus musculus [11] and in the data set on Mus musculus [12] was “Non-toxic” each time.
With `CC(C)C(=O)N1N=C(NC(=O)C(C)(C)C)SC1(CCNS(C)(=O)=O)c1ccccc1` (single isomer, unassigned; (-)) [listing 1 of 2 here], in the data set on HCT-116, the MI20 came out at 40 nmol/L. In addition, the GI50 in [1] was 63 nM. In [5], the IC50 is 48 nM. Moreover, in [13], the Fa stood at 62%. Besides, the figures for the T/C in the data set with A2780 [14] and in the data set on A2780 [15] were 0.5 and 0.27, respectively. Also, the Activity result in the data set on Mus musculus [16], in the data set on Mus musculus [17], in the data set with Mus musculus [18] and with Mus musculus [19] was “Non-toxic” each time. Moreover, the selectivity ratio in data set [20] turned out to be 8.
In the case of `CC(C)C(=O)N1N=C(NC(=O)C(C)(C)C)SC1(CCNS(C)(=O)=O)c1ccccc1` (single isomer, unassigned; (-)) [listing 2 of 2 here], the TGI result in the data set with A2780 [21] is “Dose-dependent effect”.
For `CCC(=O)N1N=C(NC(=O)C(C)(C)C)SC1(CCNS(C)(=O)=O)c1ccccc1` (single isomer, unassigned; (-)) [listing 2 of 2 here], the TGI entry in the data set on A2780 [21] is “Dose-dependent effect”.
On to `CCC(=O)N1N=C(NC(=O)C(C)(C)C)SC1(CCNS(C)(=O)=O)c1ccccc1` (stereo in doubt; (+)-12a), for which, in the data set on HCT-116, the MI20 is on record as >10000 nmol/L.
